The source of these data is US6849648B2, “Phenylene alkyne matrix metalloproteinase inhibitors” (Warner-Lambert Company, priority 2001, dated 2005).

SMILES strings stand for the structures. Like-named read-outs stand apart in the source and are kept apart here. Some results are limits rather than exact numbers.

In data set [1] the target is MMP-13CD (catalytic domain of collagenase 3) (Homo sapiens, UniProt P45452). Description: Thiopeptolide hydrolysis assay, catalytic domain of collagenase 3. In kind it is biochemical. The text has this:
(§1) The assays measure the amount by which a test compound reduces the hydrolysis of a thiopeptolide substrate caused by a matrix metalloproteinase enzyme. Such assays are described in detail by Ye et al., in Biochemistry, 1992;31(45):11231-11235, which is incorporated herein by reference.
(§2) Thiopeptolide substrates show virtually no decomposition or hydrolysis in the absence of a matrix metalloproteinase enzyme. A typical thiopeptolide substrate commonly utilized for assays is Ac-Pro-Leu-Gly-thioester-Leu-Leu-Gly-OEt. A 100 μL assay mixture will contain 50 mM of 2-morpholinoethane sulfonic acid monohydrate (MES, pH 6.0) 10 mM CaCl2, 100 μM thiopeptolide substrate, and 1 mM 5,5′-dithio-bis-(2-nitro-benzoic acid) (DTNB). The thiopeptolide substrate concentration is varied from 10 to 800 μM to obtain Km and Kcat values. The change in absorbance at 405 nm is monitored on a Thermo Max microplate reader (molecular Devices, Menlo Park, Calif.) at room temperature (22° C.). The calculation of the amount of hydrolysis of the thiopeptolide substrate is based on E412=13600 m^−1 cm^−1 for the DTNB-derived product 3-carboxy-4-nitrothiophenoxide. Assays are carried out with and without matrix metalloproteinase inhibitor compounds, and the amount of hydrolysis is compared for a determination of inhibitory activity of the test compounds.
(§3) Several representative compounds have been evaluated for their ability to inhibit various matrix metalloproteinase enzymes. Table 1 below presents inhibitory activity as IC50's in micromolar for representative invention compounds. In the table, MMP-1FL refers to full length interstitial collagenase; MMP-2FL refers to full length Gelatinase A; MMP-3CD refers to the catalytic domain of stromelysin; MMP-7FL refers to full length matrilysin; MMP-9FL refers to full length Gelatinase B; MMP-13CD refers to the catalytic domain of collagenase 3; and MMP-14CD refers to the catalytic domain of MMP-14. Test compounds were evaluated at various concentrations in order to determine their respective IC50 values, the micromolar concentration of compound required to cause a 50% inhibition of the hydrolytic activity of the respective enzyme.

The target in data set [2] is T1, MMP-1FL (full length interstitial collagenase) (Homo sapiens, UniProt P03956).
T1 sequence (P03956 100-469): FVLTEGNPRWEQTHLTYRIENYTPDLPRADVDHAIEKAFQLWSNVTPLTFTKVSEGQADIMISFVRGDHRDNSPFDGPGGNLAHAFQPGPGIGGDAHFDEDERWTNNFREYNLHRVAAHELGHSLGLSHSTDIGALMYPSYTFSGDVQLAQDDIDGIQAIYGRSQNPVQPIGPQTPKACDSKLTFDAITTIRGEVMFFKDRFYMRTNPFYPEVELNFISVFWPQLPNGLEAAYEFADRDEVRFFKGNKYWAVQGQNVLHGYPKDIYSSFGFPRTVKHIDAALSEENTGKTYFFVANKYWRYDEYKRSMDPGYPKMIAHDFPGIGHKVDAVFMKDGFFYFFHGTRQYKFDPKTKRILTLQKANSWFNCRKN
Description: Thiopeptolide hydrolysis assay, full length interstitial collagenase. Particulars: Table 3; full-length MMP01. The format is biochemical.
Source text: as §1, §2, §3

The target in data set [3] is T2, MMP-2FL (full length Gelatinase A) (Homo sapiens, UniProt P08253).
T2 sequence (P08253 110-660): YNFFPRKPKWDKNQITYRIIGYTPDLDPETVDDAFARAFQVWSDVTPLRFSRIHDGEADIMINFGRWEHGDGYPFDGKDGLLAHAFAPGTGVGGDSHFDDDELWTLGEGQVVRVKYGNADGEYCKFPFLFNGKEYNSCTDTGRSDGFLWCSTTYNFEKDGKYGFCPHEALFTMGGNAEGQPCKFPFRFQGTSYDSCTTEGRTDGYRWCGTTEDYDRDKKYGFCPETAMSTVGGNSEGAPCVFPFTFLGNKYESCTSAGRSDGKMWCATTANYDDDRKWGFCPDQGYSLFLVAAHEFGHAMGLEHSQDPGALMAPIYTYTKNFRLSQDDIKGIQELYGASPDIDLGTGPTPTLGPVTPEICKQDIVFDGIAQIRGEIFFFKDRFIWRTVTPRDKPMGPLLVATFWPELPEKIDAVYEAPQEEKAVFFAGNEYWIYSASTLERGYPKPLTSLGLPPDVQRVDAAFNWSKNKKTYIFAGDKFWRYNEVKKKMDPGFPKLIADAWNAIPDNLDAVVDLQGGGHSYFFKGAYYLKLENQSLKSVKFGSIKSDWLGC
Description: Thiopeptolide hydrolysis assay, full length Gelatinase A. In kind it is biochemical. Particulars: Table 3; full-length MMP02.
Source text: as §1, §2, §3

Data set [4] addresses MMP-3CD (catalytic domain of stromelysin) (Homo sapiens, UniProt P08254). Description: Thiopeptolide hydrolysis assay, catalytic domain of stromelysin. In kind it is biochemical. Particulars: Table 3; MMP03 catalytic domain.
Source text: as §1, §2, §3

In data set [5] the target is T3, MMP-7FL (full length matrilysin) (Homo sapiens, UniProt P09237).
T3 sequence (P09237 95-267): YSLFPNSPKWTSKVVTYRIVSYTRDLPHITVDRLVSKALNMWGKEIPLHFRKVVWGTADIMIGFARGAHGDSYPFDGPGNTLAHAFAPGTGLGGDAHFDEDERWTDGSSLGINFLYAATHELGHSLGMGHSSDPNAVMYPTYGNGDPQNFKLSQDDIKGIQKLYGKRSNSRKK
Description: Thiopeptolide hydrolysis assay, full length matrilysin. The format is biochemical. The settings on record: Table 3; full-length MMP07.
Source text: as §1, §2, §3

Data set [6] has as its target MMP-9FL (full length Gelatinase B) (Homo sapiens, UniProt P14780). Description: Thiopeptolide hydrolysis assay, full length Gelatinase B. In kind it is biochemical. Particulars: Table 3; full-length MMP09.
Source text: as §1, §2, §3

In data set [7] the target is MMP-14CD (catalytic domain of MMP-14) (Homo sapiens, UniProt P50281). Description: Thiopeptolide hydrolysis assay, catalytic domain of MMP-14. The format is biochemical. The settings on record: Table 3; MMP-14 catalytic domain; read-out: IC50 (μM) MMP14 (CD).
Source text: as §1, §2, §3

Where [8] appears, read: Table 2, thiopeptolide substrate, read-out: MMP-13CD (IC50).
Setting [9] is: Table 3, MMP-13 catalytic domain, read-out: IC50 (μM) MMP13 (CD).
Setting [10] is: Table 1, thiopeptolide substrate, read-out: IC50 (μM) Versus MMPs, MMP13 (CD).

MMP-3CD (catalytic domain of stromelysin), sequence (P08254 100-272 limits assumed): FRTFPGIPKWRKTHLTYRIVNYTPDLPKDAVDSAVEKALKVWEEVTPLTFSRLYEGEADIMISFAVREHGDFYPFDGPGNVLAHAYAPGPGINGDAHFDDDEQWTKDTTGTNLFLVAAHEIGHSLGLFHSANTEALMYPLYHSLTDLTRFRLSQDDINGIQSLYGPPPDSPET
MMP-9FL (full length Gelatinase B), sequence (P14780 94-707, species assumed): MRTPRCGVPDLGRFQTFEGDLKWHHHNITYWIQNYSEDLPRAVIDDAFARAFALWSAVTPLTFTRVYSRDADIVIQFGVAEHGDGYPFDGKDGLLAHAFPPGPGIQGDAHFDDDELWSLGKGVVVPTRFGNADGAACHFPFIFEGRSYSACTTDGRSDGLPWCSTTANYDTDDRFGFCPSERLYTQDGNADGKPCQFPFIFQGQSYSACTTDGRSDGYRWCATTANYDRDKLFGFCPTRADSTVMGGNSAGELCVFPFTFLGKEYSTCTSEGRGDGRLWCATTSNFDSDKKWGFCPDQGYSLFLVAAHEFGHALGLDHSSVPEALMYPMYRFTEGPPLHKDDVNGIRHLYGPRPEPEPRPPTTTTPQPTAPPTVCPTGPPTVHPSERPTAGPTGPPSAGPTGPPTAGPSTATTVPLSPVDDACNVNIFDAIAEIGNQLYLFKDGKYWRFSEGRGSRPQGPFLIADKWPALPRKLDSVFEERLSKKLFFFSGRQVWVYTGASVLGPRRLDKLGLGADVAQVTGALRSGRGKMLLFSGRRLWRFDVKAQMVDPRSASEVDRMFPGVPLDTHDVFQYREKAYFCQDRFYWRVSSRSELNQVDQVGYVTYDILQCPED

With `N#Cc1ccc(CNC(=O)c2cccc(C#CCn3ccnn3)c2)cc1` [Example 4, N-(4-Cyano-benzyl)-3-(3-[1,2,3]-triazol-1-yl-prop-1-ynyl)-benzamide], the IC50 in data set [1] (setting [8]) was 100 µM.
For the compound `O=C1Nc2ccc(C#CCc3ccccc3)cc2S(=O)(=O)N1Cc1ccccc1` [Example 3, 2-Benzyl-1,1-dioxo-7-(3-phenyl-prop-1-ynyl)-1,4-dihydro-2H-1l^6-benzo[1,2,4]thiadiazin-3-one], the IC50 in data set [2] was above 30 µM; in data set [3] it was above 100 µM; in data set [4], above 30 µM; in data set [5], above 30 µM; in data set [6] it was above 30 µM; in data set [1] (setting [9]), 0.12 µM. The IC50 in data set [7] is above 30 µM.
For the compound `COc1ccc(CN2C(=O)Nc3ccc(C#CCc4ccccc4)cc3S2(=O)=O)cc1` [Example 18, 2-(4-Methoxy-benzyl)-1,1-dioxo-7-(3-phenyl-prop-1-ynyl)-1,4-dihydro-2H, 1λ^6-benzo[1,2,4]thiadiazin-3-one], the IC50 in data set [2] is above 30 µM; in data set [3], above 30 µM; in data set [4] it was above 30 µM; in data set [5], above 10 µM; in data set [6], above 30 µM; in data set [1] (setting [9]), 0.185 µM. Besides, the half-inhibitory concentration (IC50) in data set [7] was above 30 µM.
`CN1C(=O)N(Cc2ccccc2)S(=O)(=O)c2cc(C#CCc3ccccc3)ccc21` [Example 1, 2-Benzyl-4-methyl-1,1-dioxo-7-(3-phenyl-prop-1ynyl)-1,4-dihydro-2H-1l^6-benzo[1,2,4]thiadiazin-3-one] returned a melting point of 125 to 127 °C. In addition, the IC50 in data set [2] is above 100 µM. The compound further showed an IC50 in data set [3] above 30 µM. In data set [4], this compound displayed an IC50 above 30 µM. Further, the IC50 in data set [5] is above 30 µM. This compound showed a half-maximal inhibitory concentration (IC50) in data set [6] above 100 µM. For the same compound, in data set [1] (setting [10]), the IC50 worked out at 2.2 µM. Besides, the IC50 in data set [7] was above 100 µM.
Take `O=C(O)c1ccc(CN2C(=O)Nc3ccc(C#CCCc4ccccc4)cc3S2(=O)=O)cc1` [Example 19, 4-[1,1,3-Trioxo-7-(4-phenyl-but-1-ynyl)-3,4-dihydro-1H-1λ^6-benzo[1,2,4]thiadiazin-2-ylmethyl]-benzoic acid]: the IC50 in data set [1] (setting [9]) is 0.079 µM.
Turning to `CN1c2ccc(C#CCc3ccccc3)cc2C(=O)N(Cc2ccc(C(=O)O)cc2)[S+]1[O-]` (stereo not shown) [Example 15, 4-[1-Methyl-2,4-dioxo-6-(3-phenyl-prop-1-ynyl)-1,4-dihydro-2H-2λ^4-benzo[1,2,6]thiadiazin-3-ylmethyl]benzoic acid], the half-maximal inhibitory concentration (IC50) is above 30 µM in data set [2]; above 30 µM in data set [3]; above 10 µM in data set [4]; 24 µM in data set [5]; above 100 µM in data set [6]; 0.0104 µM in data set [1] (setting [9]). For the same compound, the IC50 in data set [7] is above 30 µM.
As to `CN1c2ccc(C#CCc3ccccc3)cc2C(=O)N(Cc2ccc(C(=O)O)cc2)S1(=O)=O` [Example 16, 4-[1-methyl-2,2,4-trioxo-6-(3-phenylprop-1-ynyl)-1,4-dihydro-2H-2λ^6-benzo[1,2,6]-thiadiazin-3-ylmethyl]benzoic acid], the half-inhibitory concentration (IC50) in data set [2] is above 30 µM; in data set [3], above 30 µM; in data set [4], 12 µM; in data set [5] it was above 30 µM; in data set [6], above 30 µM; in data set [1] (setting [9]) it was 0.0315 µM. Also, the IC50 in data set [7] is above 30 µM.
With `CN1C(=O)N(Cc2ccc(C(=O)O)cc2)S(=O)(=O)c2cc(C#CCc3ccccc3)ccc21` [Example 2, 4-[4-Methyl-1,1,3-trioxo-7-(3-phenyl-prop-1-ynyl)-3,4-dihydro-1H-1l^6-benzo[1,2,4]thiadiazin-2-ylmethyl]-benzoic acid], the melting point lay in the range of 208 to 209 °C. In addition, the IC50 in data set [2] is above 30 µM. Also, the IC50 in data set [3] was above 30 µM. For the same compound, in data set [4], the IC50 was above 10 µM. In data set [5], the IC50 is above 30 µM. Further, the IC50 in data set [6] is above 30 µM. Moreover, the IC50 in data set [1] (setting [10]) is 0.0042 µM. The IC50 in data set [7] is above 30 µM.
`N#Cc1ccc(CNC(=O)c2cccc(C#CCn3cncn3)c2)cc1` [Example 5, N-(4-Cyano-benzyl)-3-(3-[1,2,4]-triazol-1-yl-prop-1-ynyl)-benzamide]: the 50% inhibitory concentration (IC50) in data set [1] (setting [8]) was determined as 66 µM.
As to `O=C(O)c1ccc(CN2C(=O)Nc3ccc(C#CCc4ccccc4)cc3S2(=O)=O)cc1` [Example 17, 4-[1,1,3-Trioxo-7-(3-phenyl-prop-1-ynyl)-3,4-dihydro-1H-1λ^6-benzo[1,2,4]thiadiazin-2-ylmethyl]-benzoic acid], the 50% inhibitory concentration (IC50) was above 30 µM in data set [2]; above 100 µM in data set [3]; 5.6 µM in data set [4]; 16 µM in data set [5]; above 100 µM in data set [6]; 0.00517 µM in data set [1] (setting [9]). In addition, the half-inhibitory concentration (IC50) in data set [7] was above 30 µM.
Regarding `O=C(O)c1ccc(CNC(=O)c2cccc(C#CCc3ccccc3)c2)cc1` [Example 6], the half-inhibitory concentration (IC50) in data set [1] (setting [8]) was determined as 0.029 µM.
